Measured values: publication PMC11571015, “Hybrids of Membrane-Translocating Antimicrobial Peptides Show Enhanced Activity through Membrane Permeabilization” (ACS Medicinal Chemistry Letters, 2024)
Values after ≈ are worked out from the molar mass of the structure shown.

Columns and labels:
B. subtilis = type: cell-based, B. subtilis (ATCC #6051); conditions: 1 h, pH 7.4
Protocol: (§1) Supplemental Information for Trevellin et al.
(§2) Peptide design and preparation […]
(§3) synthesized by GenScript (Piscataway, NJ) at >95% purity determined by HPLC and dissolved in DI water. Concentrations were measured by triplicate tryptophan absorbance readings at 280 nm (ε=5700 M–1cm–1, l=1 cm) using a ThermoScientific NanoDrop 2000 (Waltham, MA). Buforin II (BF2) included an F10W mutation used in many previous studies1-5 to allow for concentration measurements.
(§4) Bacteria included E. coli (Top10 Strain, Invitrogen/ThermoFisher) containing a plasmid for ampicillin resistance (Novagen) and/or B. subtilis (ATCC #6051). Bacterial growth was performed in TSB (trypticase soy broth) prepared at 3% w/v (30 g of media in 1 L) from BD Difco unless otherwise noted. Overnight cultures were picked from petri dishes or frozen stock and grown for 14-16 hours at 37 °C in TSB with shaking. E. coli overnight cultures were incubated with 25 μg/mL ampicillin. The overnight cultures were then diluted 1:100 in 25 mL TSB and incubated at 37 °C with shaking for 2.5 h. The culture was pelleted via centrifugation at 1500×g for 10 min at room temperature and resuspended in sterile cold wash buffer (10 mM sodium phosphate buffer and 10 mM sodium chloride, pH 7.4). These resuspended bacteria were then used for radial diffusion, microbroth dilution, and propidium iodide assays. […]
(§5) Microbroth dilution assay
(§6) Microbroth dilution assays were used to determine the minimum inhibitory concentration (MIC) of each peptide for E. coli and B. subtilis (ATCC #6051). A 1:2 serial dilution was prepared for a peptide across the top row of a 96-well plate. 100 μL of bacterial suspension (4 × 10^6 CFU/mL, diluted in sterile wash buffer, 10 mM sodium phosphate buffer and 10 mM sodium chloride, pH 7.4) and 10 μL of peptide were mixed to each well in subsequent rows of the plate. The 11 effective peptide concentrations ranged from 18.2 μM to 1.8x10-2 μM, with DI water used as a control, and each concentration was tested in triplicate per plate. After the bacteria and peptide mixtures were incubated in plates at 37°C for 1 hour, 100 μL of 6% w/v TSB was added to each well. For wells containing E. coli, ampicillin was added at a final concentration of 25 µg/ml. The plate was then incubated overnight (18-24 h) at 37°C. After incubation, OD600nm were measured using the SpectraMax M3 microplate reader (Molecular Devices). […]
(§7) relative permeability = F5/F0
(§8) Each peptide was tested with bacteria grown from at least three distinct overnight […]
(§9) The MTS assay is a colorimetric viability assay for mammalian cells. HEK 293 cells (ATCC CRL-1573) were grown in complete growth medium (EMEM, 10% fetal bovine serum, 1% penicillin-streptomycin). Cells were cultured in a T-75 maintenance flask, fed with fresh media every 1-2 days, and passaged approximately every 5-7 days once cells reached 70-90% confluence. During passaging, HEK 293 cells were plated in a 96-well plate at 20,000 cells/well and incubated for 4-6 hours (37 °C, 95% humidity, 5% CO2). Each column of cells (8 replicates) was then incubated overnight with 18.2 µM peptide or a control. After incubation, media was aspirated and refreshed for each well, […]

E. coli = type: cell-based, E. coli (Top10 Strain); conditions: median MIC; microbroth dilution, 1:2 serial dilution 18.2 to 1.8x10-2 μM, 4 × 10^6 CFU/mL, 1 h 37°C in wash buffer pH 7.4, then TSB overnight (18-24 h), OD600; triplicate per plate; mixture: each peptide at the reported concentration
Protocol: as §1, §2, §3, §4, §5, §6, §7, §8, §9

Row | Compound | MIC against B. subtilis (B. subtilis) | MIC against E. coli (E. coli)
1 | CC[C@H](C)[C@H](NC(=O)[C@H](CCCNC(=N)N)NC(=O)[C@@H](NC(=O)[C@H](CCCCN)NC(=O)[C@H](CCCCN)NC(=O)[C@H](CC(N)=O)NC(=O)[C@H](CC(=O)O)NC(=O)[C@H](CCCNC(=N)N)NC(=O)[C@H](C)NC(=O)[C@H](CCCCN)NC(=O)[C@H](CCCNC(=N)N)NC(=O)[C@H](CC(C)C)NC(=O)[C@H](CC(C)C)NC(=O)[C@H](CCCNC(=N)N)NC(=O)[C@H](Cc1c[nH]cn1)NC(=O)[C@@H](NC(=O)[C@H](CCCNC(=N)N)NC(=O)CNC(=O)[C@@H](NC(=O)[C@@H]1CCCN1C(=O)[C@H](Cc1c[nH]c2ccccc12)NC(=O)[C@H](CCC(N)=O)NC(=O)[C@H](CC(C)C)NC(=O)CNC(=O)[C@H](C)NC(=O)[C@H](CCCNC(=N)N)NC(=O)[C@H](CO)NC(=O)[C@H](CO)NC(=O)[C@H](CCCNC(=N)N)NC(=O)[C@@H](N)[C@@H](C)O)C(C)C)C(C)C)[C@@H](C)O)C(=O)N[C@@H](Cc1c[nH]c2ccccc12)C(=O)N1CCC[C@H]1C(=O)N[C@@H](CCCNC(=N)N)C(=O)N[C@@H](Cc1c[nH]cn1)C(=O)N[C@@H](CC(C)C)C(=O)N[C@@H](CCC(N)=O)C(=O)N[C@@H](CC(C)C)C(=O)N[C@@H](C)C(=O)N[C@H](C(=O)N[C@@H](CCCNC(=N)N)C(=O)N[C@@H](CC(N)=O)C(=O)O)C(C)C [BF2-DesHDAP1 (BD)] | 4.6 µM (≈ 22.7 µg/mL) | 1.1 µM (≈ 5.42 µg/mL)
2 | CC(C)C[C@H](NC(=O)CNC(=O)[C@H](C)NC(=O)[C@H](CCCNC(=N)N)NC(=O)[C@H](CO)NC(=O)[C@H](CO)NC(=O)[C@H](CCCNC(=N)N)NC(=O)[C@@H](N)[C@@H](C)O)C(=O)N[C@@H](CCC(N)=O)C(=O)N[C@@H](Cc1c[nH]c2ccccc12)C(=O)N1CCC[C@H]1C(=O)N[C@H](C(=O)NCC(=O)N[C@@H](CCCNC(=N)N)C(=O)N[C@H](C(=O)N[C@@H](Cc1c[nH]cn1)C(=O)N[C@@H](CCCNC(=N)N)C(=O)N[C@@H](CC(C)C)C(=O)N[C@@H](CC(C)C)C(=O)N[C@@H](CCCNC(=N)N)C(=O)N[C@@H](CCCCN)C(=O)O)C(C)C)C(C)C [Buforin II (BF2), reference compound] |  | >18.2 µM
3 | CC[C@H](C)[C@H](NC(=O)[C@H](CCCNC(=N)N)NC(=O)[C@@H](NC(=O)[C@H](CCCCN)NC(=O)[C@H](CCCCN)NC(=O)[C@H](CC(N)=O)NC(=O)[C@H](CC(=O)O)NC(=O)[C@H](CCCNC(=N)N)NC(=O)[C@H](C)NC(=O)[C@H](C)NC(=O)[C@H](CCCCN)NC(=O)[C@H](CCCNC(=N)N)NC(=O)[C@H](CC(C)C)NC(=O)[C@H](CC(C)C)NC(=O)[C@H](CCCNC(=N)N)NC(=O)[C@H](Cc1c[nH]cn1)NC(=O)[C@@H](NC(=O)[C@H](CCCNC(=N)N)NC(=O)CNC(=O)[C@@H](NC(=O)[C@@H]1CCCN1C(=O)[C@H](Cc1c[nH]c2ccccc12)NC(=O)[C@H](CCC(N)=O)NC(=O)[C@H](CC(C)C)NC(=O)CNC(=O)[C@H](C)NC(=O)[C@H](CCCNC(=N)N)NC(=O)[C@H](CO)NC(=O)[C@H](CO)NC(=O)[C@H](CCCNC(=N)N)NC(=O)[C@@H](N)[C@@H](C)O)C(C)C)C(C)C)[C@@H](C)O)C(=O)N[C@@H](Cc1c[nH]c2ccccc12)C(=O)N1CCC[C@H]1C(=O)N[C@@H](CCCNC(=N)N)C(=O)N[C@@H](Cc1c[nH]cn1)C(=O)N[C@@H](CC(C)C)C(=O)N[C@@H](CCC(N)=O)C(=O)N[C@@H](CC(C)C)C(=O)N[C@@H](C)C(=O)N[C@H](C(=O)N[C@@H](CCCNC(=N)N)C(=O)N[C@@H](CC(N)=O)C(=O)O)C(C)C [BF2-A-DesHDAP1 (BAD)] | 4.6 µM (≈ 23 µg/mL) | 1.1 µM (≈ 5.5 µg/mL)
4 | CC[C@H](C)[C@H](NC(=O)[C@H](CCCNC(=N)N)NC(=O)[C@@H](NC(=O)[C@H](CCCCN)NC(=O)[C@H](CCCCN)NC(=O)[C@H](CC(N)=O)NC(=O)[C@H](CC(=O)O)NC(=O)[C@H](CCCNC(=N)N)NC(=O)[C@H](C)N)[C@@H](C)O)C(=O)N[C@@H](Cc1c[nH]c2ccccc12)C(=O)N1CCC[C@H]1C(=O)N[C@@H](CCCNC(=N)N)C(=O)N[C@@H](Cc1c[nH]cn1)C(=O)N[C@@H](CC(C)C)C(=O)N[C@@H](CCC(N)=O)C(=O)N[C@@H](CC(C)C)C(=O)N[C@@H](C)C(=O)N[C@H](C(=O)N[C@@H](CCCNC(=N)N)C(=O)N[C@@H](CC(N)=O)C(=O)N[C@@H](C)C(=O)N[C@H](C(=O)N[C@@H](CCCNC(=N)N)C(=O)N[C@@H](CO)C(=O)N[C@@H](CO)C(=O)N[C@@H](CCCNC(=N)N)C(=O)N[C@@H](C)C(=O)NCC(=O)N[C@@H](CC(C)C)C(=O)N[C@@H](CCC(N)=O)C(=O)N[C@@H](Cc1c[nH]c2ccccc12)C(=O)N1CCC[C@H]1C(=O)N[C@H](C(=O)NCC(=O)N[C@@H](CCCNC(=N)N)C(=O)N[C@H](C(=O)N[C@@H](Cc1c[nH]cn1)C(=O)N[C@@H](CCCNC(=N)N)C(=O)N[C@@H](CC(C)C)C(=O)N[C@@H](CC(C)C)C(=O)N[C@@H](CCCNC(=N)N)C(=O)N[C@@H](CCCCN)C(=O)O)C(C)C)C(C)C)[C@@H](C)O)C(C)C [DesHDAP1-A-BF2 (DAB)] | 4.6 µM (≈ 23 µg/mL) | 1.1 µM (≈ 5.5 µg/mL)
5 | CC[C@H](C)[C@H](NC(=O)[C@H](CCCNC(=N)N)NC(=O)[C@@H](NC(=O)[C@H](CCCCN)NC(=O)[C@H](CCCCN)NC(=O)[C@H](CC(N)=O)NC(=O)[C@H](CC(=O)O)NC(=O)[C@H](CCCNC(=N)N)NC(=O)[C@H](C)N)[C@@H](C)O)C(=O)N[C@@H](Cc1c[nH]c2ccccc12)C(=O)N1CCC[C@H]1C(=O)N[C@@H](CCCNC(=N)N)C(=O)N[C@@H](Cc1c[nH]cn1)C(=O)N[C@@H](CC(C)C)C(=O)N[C@@H](CCC(N)=O)C(=O)N[C@@H](CC(C)C)C(=O)N[C@@H](C)C(=O)N[C@H](C(=O)N[C@@H](CCCNC(=N)N)C(=O)N[C@@H](CC(N)=O)C(=O)N1CCC[C@H]1C(=O)N[C@H](C(=O)N[C@@H](CCCNC(=N)N)C(=O)N[C@@H](CO)C(=O)N[C@@H](CO)C(=O)N[C@@H](CCCNC(=N)N)C(=O)N[C@@H](C)C(=O)NCC(=O)N[C@@H](CC(C)C)C(=O)N[C@@H](CCC(N)=O)C(=O)N[C@@H](Cc1c[nH]c2ccccc12)C(=O)N1CCC[C@H]1C(=O)N[C@H](C(=O)NCC(=O)N[C@@H](CCCNC(=N)N)C(=O)N[C@H](C(=O)N[C@@H](Cc1c[nH]cn1)C(=O)N[C@@H](CCCNC(=N)N)C(=O)N[C@@H](CC(C)C)C(=O)N[C@@H](CC(C)C)C(=O)N[C@@H](CCCNC(=N)N)C(=O)N[C@@H](CCCCN)C(=O)O)C(C)C)C(C)C)[C@@H](C)O)C(C)C [DesHDAP1-P-BF2 (DPB)] | 4.6 µM (≈ 23.1 µg/mL) | 1.1 µM (≈ 5.53 µg/mL)
6 | CC[C@H](C)[C@H](NC(=O)[C@H](CCCNC(=N)N)NC(=O)[C@@H](NC(=O)[C@H](CCCCN)NC(=O)[C@H](CCCCN)NC(=O)[C@H](CC(N)=O)NC(=O)[C@H](CC(=O)O)NC(=O)[C@H](CCCNC(=N)N)NC(=O)[C@H](C)N)[C@@H](C)O)C(=O)N[C@@H](Cc1c[nH]c2ccccc12)C(=O)N1CCC[C@H]1C(=O)N[C@@H](CCCNC(=N)N)C(=O)N[C@@H](Cc1c[nH]cn1)C(=O)N[C@@H](CC(C)C)C(=O)N[C@@H](CCC(N)=O)C(=O)N[C@@H](CC(C)C)C(=O)N[C@@H](C)C(=O)N[C@H](C(=O)N[C@@H](CCCNC(=N)N)C(=O)N[C@@H](CC(N)=O)C(=O)N[C@H](C(=O)N[C@@H](CCCNC(=N)N)C(=O)N[C@@H](CO)C(=O)N[C@@H](CO)C(=O)N[C@@H](CCCNC(=N)N)C(=O)N[C@@H](C)C(=O)NCC(=O)N[C@@H](CC(C)C)C(=O)N[C@@H](CCC(N)=O)C(=O)N[C@@H](Cc1c[nH]c2ccccc12)C(=O)N1CCC[C@H]1C(=O)N[C@H](C(=O)NCC(=O)N[C@@H](CCCNC(=N)N)C(=O)N[C@H](C(=O)N[C@@H](Cc1c[nH]cn1)C(=O)N[C@@H](CCCNC(=N)N)C(=O)N[C@@H](CC(C)C)C(=O)N[C@@H](CC(C)C)C(=O)N[C@@H](CCCNC(=N)N)C(=O)N[C@@H](CCCCN)C(=O)O)C(C)C)C(C)C)[C@@H](C)O)C(C)C [DesHDAP1-BF2 (DB)] | 4.6 µM (≈ 22.7 µg/mL) | 1.1 µM (≈ 5.42 µg/mL)
